From patent publication US20070148250A1, “Loading of a camptothecin drug into colloidal nanoparticles” (priority 2003, published 2007)

Tests used:
Assay type in all cases: physicochemical
[1] = Solubility of camptothecin in buffered aqueous phase at different pH values; conditions: 50 mM buffer, pH values below 7, within few days
Description: In this measurements, the solubility of camptothecin in aqueous media at different pH values is investigated. Pure camptothecin carboxylate was dissolved in a buffered (50 mM) aqueous phase at different pH values. At different times the solutions were centrifuged in order to remove camptothecin lactone crystals and the remaining concentration of the camptothecin in the supernatant was determined by UV-vis spectroscopy. […] These concentrations are too low for sufficient pharmaceutical efficacy.

[2] = Stability of camptothecin carboxylate in concentrated alkaline media (HPLC)
Description: CPT-carboxylate can be obtained quantitatively from the lactone form of CPT by incubation the latter with at least an equimolar amount or an excess of base (e.g. NaOH or NH4OH). In the most simple approach CPT lactone is stirred with 1 M NaOH or NH4OH ovenight. Higher concentrations are favourable to accelerate the process.
Camptothecin in the lactone form was dissolved at a concentration of 4.6 μg/ml in concentrated ammonia (NH4OH) in order to obtain the carboxylate form. HPLC analysis was performed directly after dissolving the lactone and after 19 days.

[3] = Fraction of free (non-liposomally bound) CPT by Vivaspin 2 centrifugal filtration (MWCO 100 kDa) and UV-spectroscopy of the filtrate
Description: For direct comparison, CPT-carboxylate loaded liposomes were made by one of the techniques as given in the literature. Liposomes, loaded with CPT-carboxylate produced by the inventive method were prepared with the same total composition. The fraction of free (non-liposomally bound) CPT was determined in both cases. The free CPT was determined by centrifugation with the centrifugal concentrator Vivaspin 2 (Vivasciences). By a membrane of MWCO 100 kDa, the molecularly dissolved solutes were separated from the colloidal particles. The concentration of CPT in the filtrate was determined by UV-spectroscopy. All measurements with camptothecin were made with tris/HCI buffer, pH 7.5, 10 mM or 20 mM.
For the production of classically made formulations, the liposomes were formed directly in the aqueous solution of CPT carboxylate. By subsequent extrusion through membranes of 200 nm pore size homogeneous mixing and encapsulation was provided. The liposomes were made either by the ‘film method’ or by ‘ethanol injection’.
For the film method, a solution of lipids in chloroform is evaporated in a round bottom flask. A thin dry lipid film is formed at the inner wall of the flask. For the production of empty liposomes, the film is reconstituted with water or buffer solution. For the production of CPT loaded liposomes, the film is reconstituted with the CPT-carboxylate solution. […]
A lyophilisate of DOTAP liposomes (30 mM) was reconstituted with 2.088 ml of an aqueous solution of CPT carboxylate in water (1.4 mM). […] From the resulting preparation the fraction of free CPT was determined by centrifugation at different lipid concentrations.
1 ml of the DOTAP concentrate and 9 ml of CPT carboxylate solution, c=[…] were mixed. […] This preparation was diluted 1:10 1:25 and 1:50 and the fraction of free CPT was determined.
Liquid DOTAP formulations were exposed to CPT-carboxylate solutions for different time scales. […] After the given time, the fraction of free CPT was determined for different dilutions. […]

[4] = Loading of aminofluorescein to DOTAP/DOPC liposomes, cross-flow filtration and UV-vis; conditions: DOTAP/DOPC 1:1 liposomes, after three cycles of filtration
Description: A 25 mM liposome formulation consisting of DOTAP/DOPC 1:1 in a solution of 5% glucose (w/v) was prepared. Briefly, a solution of DOTAP/DOPC in chloroform was put into a round bottom flask, and the solvent was evaporated in order to obtain a thin lipid film. The lipid film was reconstituted with the glucose solution to a total lipid concentration of 25 mM. The resulting multilamellar, polydisperse liposome suspension was extruded through a membrane of 200 nm pore size to obtain liposomes of uniform size.
10 ml of the liposome preparation and 10 ml of a 5 mM aqueous solution of aminofluorescein were combined.
Subsequently, the molecularly dissolved components were removed by cross-flow filtration, using a VIVAFLOW filtration kit, […] and a Masterflex easy lod pump, model.
20 ml of the preparation were diluted with 20 ml glucose. By the subsequent dialysis, part of the solvent and the molecularly dissolved (low molecular) compound penetrated across the separation membrane, while the liposomes were retained. Filtration was performed until the volume of the original solution was reduced to half of the start volume. Then the lost volume was substituted by glucose solution and the filtration was started again. Three filtration cycles were performed.
The concentration of aminofluorescein in the permeate and in the retained liposome suspension was determined by UV-vis spectroscopy.

## CC[C@@]1(O)C(=O)OCc2c1cc1n(c2=O)Cc2cc3ccccc3nc2-1 [Camptothecin, 20(S)-Camptothecine (1H-Pyrano[3′,4′:6,7]indolizino[1,2-b]quinoline-3,14 (4H,12H)-dione, 4-ethyl-4-hydroxy-, (S)—)]
[1]
  concentration of camptothecin remaining in supernatant: very low values
[2]; 4.6 μg/ml in concentrated ammonia (NH4OH), after 19 days
  degradation by the alkaline medium (HPLC): no indication for a degradation
[3]; DOTAP 15 mM, CPT carboxylate 0.75 mM, original concentration, Tris/HCl 10 mM pH 7.5
  loading of DOTAP liposomes with CPT at first time point after mixing: loading reached saturation
[3]; diluted samples of DOTAP 15 mM/CPT 0.75 mM mixture, not stirred
  time up to which fraction of loaded drug increased: up to 4 hours

## aminofluorescein
[4]; 5% glucose
  amount retained with the liposome suspension: 47 % of the original concentration
[4]
  retained amount relative to expected value without any retention: four times as high

## CCC(O)(C(=O)O)c1cc2n(c(=O)c1CO)Cc1cc3ccccc3nc1-2 (centres unmarked) [camptothecin carboxylate]
[2]
  chemical degradation: no indication for chemical degradation
[3]; 30-100% DOTAP, total lipid 15 mM, CPT 0.75 mM, additional presence of DOPC
  loading efficacy in DOTAP/DOPC liposomes: only slightly reduced
